# Data as given in patent publication US10358446B2, “Bruton's tyrosine kinase inhibitors” (Zibo Biopolar Changsheng Pharmaceutical Co. Ltd., priority 2015, dated 2019).
# Target: BTK (Homo sapiens (Human), UniProt Q06187)
# Experiment: Btk kinase assay (HTRF)
# Type: biochemical
# Conditions: [ATP]=80 μM, BTK=3.4 nM; read-out: BTK Inhibition
# Method in brief: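 BTK (3.4 nM) incubated 1 h with inhibitor, 80 μM ATP and 1 μM peptide substrate in 50 mM HEPES pH 7.0 with BSA and orthovanadate. Reaction stopped with EDTA plus Eu-antibody/XL665; HTRF 665/615 ratio read after 1 h, IC50 calculated relative to no-inhibitor and no-enzyme controls.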
# BTK, sequence (Q06187 whole entry, species assumed): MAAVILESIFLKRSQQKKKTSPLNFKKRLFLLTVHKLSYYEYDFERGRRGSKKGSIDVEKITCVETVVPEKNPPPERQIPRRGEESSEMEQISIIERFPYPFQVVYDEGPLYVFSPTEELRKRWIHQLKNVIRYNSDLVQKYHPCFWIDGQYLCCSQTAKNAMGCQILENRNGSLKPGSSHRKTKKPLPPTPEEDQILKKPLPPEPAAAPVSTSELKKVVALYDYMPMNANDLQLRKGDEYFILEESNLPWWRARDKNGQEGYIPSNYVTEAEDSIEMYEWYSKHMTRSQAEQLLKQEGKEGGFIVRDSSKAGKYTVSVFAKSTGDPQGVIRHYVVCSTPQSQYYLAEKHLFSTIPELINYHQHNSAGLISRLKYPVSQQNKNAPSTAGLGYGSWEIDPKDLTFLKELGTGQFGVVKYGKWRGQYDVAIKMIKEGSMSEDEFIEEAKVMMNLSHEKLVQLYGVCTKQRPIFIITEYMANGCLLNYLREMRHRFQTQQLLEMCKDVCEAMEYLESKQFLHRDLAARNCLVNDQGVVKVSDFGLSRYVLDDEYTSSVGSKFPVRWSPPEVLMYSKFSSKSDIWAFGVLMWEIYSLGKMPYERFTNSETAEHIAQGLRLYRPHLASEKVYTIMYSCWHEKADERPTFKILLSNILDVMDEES
row,Structure (SMILES),IC50
1,"C=CC(=O)Nc1cccc(-n2c(=O)n(-c3ccc(OCc4ccc(C(F)(F)F)cc4)c(Cl)c3)c3cnccc32)c1 [Example 223, N-(3-(3-(3-chloro-4-((4-(trifluoromethyl)benzyl)oxy)phenyl)-2-oxo-2,3-dihydro-1H-imidazo[4,5-c]pyridin-1-yl)phenyl)acrylamide]",100 to 1000 nM
2,"C=CC(=O)Nc1cccc(-n2c(=O)n(-c3ccc(OCc4ccccc4)c(Cl)c3)c3cnccc32)c1 [Example 224, N-(3-(3-(4-(benzyloxy)-3-chlorophenyl)-2-oxo-2,3-dihydro-1H-imidazo[4,5-c]pyridin-1-yl)phenyl)acrylamide]",100 to 1000 nM
3,"C=CC(=O)Nc1cccc(-n2c(=O)n(-c3ccc(OCc4ccccc4C)cc3)c3cnccc32)c1 [Example 225, N-(3-(3-(4-((2-methylbenzyl)oxy)phenyl)-2-oxo-2,3-dihydro-1H-imidazo[4,5-c]pyridin-1-yl)phenyl)acrylamide]",100 to 1000 nM
4,"C=CC(=O)Nc1cccc(-n2c(=O)n(-c3ccc(OCc4c(F)cccc4F)c(F)c3)c3cnccc32)c1 [Example 227, N-(3-(3-(4-((2,6-difluorobenzyl)oxy)-3-fluorophenyl)-2-oxo-2,3-dihydro-1H-imidazo[4,5-c]pyridin-1-yl)phenyl)acrylamide]",100 to 1000 nM
5,"C=CC(=O)Nc1cccc(-n2c(=O)n(-c3ccc(OCc4ccc(Cl)cc4Cl)cc3)c3cnccc32)c1 [Example 229, N-(3-(3-(4-((2,4-dichlorobenzyl)oxy)phenyl)-2-oxo-2,3-dihydro-1H-imidazo[4,5-c]pyridin-1-yl)phenyl)acrylamide]",10 to 100 nM
6,"C=CC(=O)Nc1cccc(-n2c(=O)n(-c3ccc(OCc4ccccc4Cl)cc3)c3cnccc32)c1 [Example 231, N-(3-(3-(4-((2-chlorobenzyl)oxy)phenyl)-2-oxo-2,3-dihydro-1H-imidazo[4,5-c]pyridin-1-yl)phenyl)acrylamide]",10 to 100 nM
7,"C=CC(=O)Nc1cccc(-n2c(=O)n(-c3ccc(OCc4ccccc4C(F)(F)F)cc3)c3cnccc32)c1 [Example 232, N-(3-(2-oxo-3-(4-((2-(trifluoromethyl)benzyl)oxy)phenyl)-2,3-dihydro-1H-imidazo[4,5-c]pyridin-1-yl)phenyl)acrylamide]",10 to 100 nM
8,"C=CC(=O)Nc1cccc(-n2c(=O)n(-c3cccc(OCc4ccccc4)c3)c3cnccc32)c1 [Example 233, N-(3-(3-(3-(benzyloxy)phenyl)-2-oxo-2,3-dihydro-1H-imidazo[4,5-c]pyridin-1-yl)phenyl)acrylamide]",10 to 100 nM
9,"C=CC(=O)Nc1cccc(-n2c(=O)n(-c3ccc(OCc4ccccc4)c(F)c3)c3cnccc32)c1 [Example 234, N-(3-(3-(4-(benzyloxy)-3-fluorophenyl)-2-oxo-2,3-dihydro-1H-imidazo[4,5-c]pyridin-1-yl)phenyl)acrylamide]",100 to 1000 nM
10,"C=CC(=O)Nc1cccc(-n2c(=O)n(-c3ccc(OCc4ccccc4F)c(Cl)c3)c3cnccc32)c1 [Example 235, N-(3-(3-(3-chloro-4-((2-fluorobenzyl)oxy)phenyl)-2-oxo-2,3-dihydro-1H-imidazo[4,5-c]pyridin-1-yl)phenyl)acrylamide]",10 to 100 nM
11,"C=CC(=O)N1CC[C@@H](n2c(=O)n(-c3ccc(OCc4ccccc4F)c(Cl)c3)c3cnccc32)C1 [Example 236, (R)-1-(1-acryloylpyrrolidin-3-yl)-3-(3-chloro-4-((2-fluorobenzyl)oxy)phenyl)-1,3-dihydro-2H-imidazo[4,5-c]pyridin-2-one]",100 to 1000 nM
12,"C=CC(=O)N1CC[C@@H](n2c(=O)n(-c3ccc(OCc4ccccc4)c(F)c3)c3cnccc32)C1 [Example 237, (R)-1-(1-acryloylpyrrolidin-3-yl)-3-(4-(benzyloxy)-3-fluorophenyl)-1,3-dihydro-2H-imidazo[4,5-c]pyridin-2-one]",10 to 100 nM
13,"C=CC(=O)Nc1cccc(-n2c(=O)n(-c3ccc(OCc4cccc(Cl)c4F)c(F)c3)c3cnccc32)c1 [Example 238, N-(3-(3-(4-((3-chloro-2-fluorobenzyl)oxy)-3-fluorophenyl)-2-oxo-2,3-dihydro-1H-imidazo[4,5-c]pyridin-1-yl)phenyl)acrylamide]",100 to 1000 nM
14,"C=CC(=O)Nc1cccc(-n2c(=O)n(-c3ccc(OCc4ccc(C(F)(F)F)cc4)cc3)c3cnccc32)c1 [Example 242, N-(3-(2-oxo-3-(4-((4-(trifluoromethyl)benzyl)oxy)phenyl)-2,3-dihydro-1H-imidazo[4,5-c]pyridin-1-yl)phenyl)acrylamide]",100 to 1000 nM
15,"C=CC(=O)Nc1cccc(-n2c(=O)n(-c3ccc(OCc4cccc(C(F)(F)F)c4)c(Cl)c3)c3cnccc32)c1 [Example 243, N-(3-(3-(3-chloro-4-((3-(trifluoromethyl)benzyl)oxy)phenyl)-2-oxo-2,3-dihydro-1H-imidazo[4,5-c]pyridin-1-yl)phenyl)acrylamide]",100 to 1000 nM
16,"C=CC(=O)N1CC[C@@H](n2c(=O)n(-c3ccc(OCc4ccc(Cl)cc4F)cc3)c3cnccc32)C1 [Example 244, (R)-1-(1-acryloylpyrrolidin-3-yl)-3-(4-((4-chloro-2-fluorobenzyl)oxy)phenyl)-1H-imidazo[4,5-c]pyridin-2(3H)-one]",100 to 1000 nM
17,"C=CC(=O)Nc1cccc(-n2c(=O)n(-c3ccc(OCc4ccc(Cl)cc4F)cc3)c3cnccc32)c1 [Example 245, N-(3-(3-(4-((4-chloro-2-fluorobenzyl)oxy)phenyl)-2-oxo-2,3-dihydro-1H-imidazo[4,5-c]pyridin-1-yl)phenyl)acrylamide]",100 to 1000 nM
18,C=CC(=O)N1CC[C@@H](n2c(=O)n(-c3ccc(OCc4ccccc4)cc3)c3cnccc32)C1 [Example 246],100 to 1000 nM
19,"C=CC(=O)Nc1cccc(-n2c(=O)n(-c3ccc(C(=O)NCc4ccc(F)cc4)cc3)c3cnccc32)c1 [Example 249, 4-(1-(3-acrylamidophenyl)-2-oxo-1H-imidazo[4,5-c]pyridin-3(2H)-yl)-N-(4-fluorobenzyl)benzamide]",10 to 100 nM
20,"C=CC(=O)N1CC[C@@H](n2c(=O)n(-c3ccc(C(=O)N4CCOCC4)cc3)c3cnccc32)C1 [Example 250, (R)-1-(1-acryloylpyrrolidin-3-yl)-3-(4-(morpholine-4-carbonyl)phenyl)-1H-imidazo[4,5-c]pyridin-2(3H)-one]",1000 to 10000 nM

# The remaining lines, values ahead:
row,IC50,Structure (SMILES)
1,100 to 1000 nM,"C=CC(=O)Nc1cccc(-n2c(=O)n(-c3ccc(OCc4ccc(Cl)c(Cl)c4)cc3)c3cnccc32)c1 [Example 218, N-(3-(3-(4-((3,4-dichlorobenzyl)oxy)phenyl)-2-oxo-2,3-dihydro-1H-imidazo[4,5-c]pyridin-1-yl)phenyl)acrylamide]"
2,100 to 1000 nM,"C=CC(=O)Nc1cccc(-n2c(=O)n(-c3ccc(OCc4cc(F)cc(F)c4)cc3)c3cnccc32)c1 [Example 219, N-(3-(3-(4-((3,5-difluorobenzyl)oxy)phenyl)-2-oxo-2,3-dihydro-1H-imidazo[4,5-c]pyridin-1-yl)phenyl)acrylamide]"
3,100 to 1000 nM,"C=CC(=O)Nc1cccc(-n2c(=O)n(-c3ccc(OCc4cc(F)ccc4F)cc3)c3cnccc32)c1 [Example 220, N-(3-(3-(4-((2,5-difluorobenzyl)oxy)phenyl)-2-oxo-2,3-dihydro-1H-imidazo[4,5-c]pyridin-1-yl)phenyl)acrylamide]"
4,10 to 100 nM,"C=CC(=O)Nc1cccc(-n2c(=O)n(-c3ccc(OCc4ccc(Cl)cc4)cc3)c3cnccc32)c1 [Example 221, N-(3-(3-(4-((4-chlorobenzyl)oxy)phenyl)-2-oxo-2,3-dihydro-1H-imidazo[4,5-c]pyridin-1-yl)phenyl)acrylamide]"
5,10 to 100 nM,"C=CC(=O)Nc1cccc(-n2c(=O)n(-c3ccc(OCc4cccc(F)c4)cc3)c3cnccc32)c1 [Example 222, N-(3-(3-(4-((3-fluorobenzyl)oxy)phenyl)-2-oxo-2,3-dihydro-1H-imidazo[4,5-c]pyridin-1-yl)phenyl)acrylamide]"
6,100 to 1000 nM,"C=CC(=O)Nc1cccc(-n2c(=O)n(-c3ccc(OCc4c(F)cccc4F)cc3)c3cnccc32)c1 [Example 226, N-(3-(3-(4-((2,6-difluorobenzyl)oxy)phenyl)-2-oxo-2,3-dihydro-1H-imidazo[4,5-c]pyridin-1-yl)phenyl)acrylamide]"
7,100 to 1000 nM,"C=CC(=O)Nc1cccc(-n2c(=O)n(-c3ccc(OCc4ccccc4F)cc3)c3cnccc32)c1 [Example 228, N-(3-(3-(4-((2-fluorobenzyl)oxy)phenyl)-2-oxo-2,3-dihydro-1H-imidazo[4,5-c]pyridin-1-yl)phenyl)acrylamide]"
8,10 to 100 nM,"C=CC(=O)Nc1cccc(-n2c(=O)n(-c3ccc(OCc4cccc(Cl)c4)cc3)c3cnccc32)c1 [Example 230, N-(3-(3-(4-((3-chlorobenzyl)oxy)phenyl)-2-oxo-2,3-dihydro-1H-imidazo[4,5-c]pyridin-1-yl)phenyl)acrylamide]"
9,100 to 1000 nM,C=CC(=O)Nc1cccc(-n2c(=O)n(-c3ccc(OCc4ccccc4)cc3)c3cnccc32)c1 [Example 239]
10,10 to 100 nM,"C=CC(=O)Nc1cccc(-n2c(=O)n(-c3ccc(OCc4cccc(C(F)(F)F)c4)cc3)c3cnccc32)c1 [Example 240, N-(3-(2-oxo-3-(4-((3-(trifluoromethyl)benzyl)oxy)phenyl)-2,3-dihydro-1H-imidazo[4,5-c]pyridin-1-yl)phenyl)acrylamide]"
11,100 to 1000 nM,"C=CC(=O)Nc1cccc(-n2c(=O)n(-c3ccc(OCc4ccc(F)c(F)c4)cc3)c3cnccc32)c1 [Example 241, N-(3-(3-(4-((3,4-difluorobenzyl)oxy)phenyl)-2-oxo-2,3-dihydro-1H-imidazo[4,5-c]pyridin-1-yl)phenyl)acrylamide]"
12,10 to 100 nM,"C=CC(=O)Nc1cccc(-n2c(=O)n(-c3ccc(OCc4ccc(F)cc4)cc3)c3cnccc32)c1 [Example 247, N-(3-(3-(4-((4-fluorobenzyl)oxy)phenyl)-2-oxo-2,3-dihydro-1H-imidazo[4,5-c]pyridin-1-yl)phenyl)acrylamide]"
13,100 to 1000 nM,"C=CC(=O)Nc1cccc(-n2c(=O)n(-c3ccc(OCc4ccc(F)cc4F)cc3)c3cnccc32)c1 [Example 248, N-(3-(3-(4-((2,4-difluorobenzyl)oxy)phenyl)-2-oxo-2,3-dihydro-1H-imidazo[4,5-c]pyridin-1-yl)phenyl)acrylamide]"
